From US8883782B2, “Spiro-tetracyclic ring compounds as beta-secretase modulators and methods of use” (Amgen Inc., priority 2010, dated 2014)
Like-named read-outs stand apart in the source and are kept apart here.

Legend:
[1] = target: Beta Secretase enzyme (BACE) (Homo sapiens, UniProt P56817); assay: In vitro enzymatic BACE FRET (fluorescence resonance energy transfer) assay; assay type: biochemical; conditions: average IC50, enzyme assay; read-out: BACE 1 FRET assay
In short: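 Fluorescence read after Tris quench (pH raised to neutrality) of a one-hour BACE reaction. Buffer: acetate 0.05 M, pH 4.2, with 100 uM genapol and 10% DMSO final; started by adding 50 nM FRET peptide substrate spanning the cleavage site.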

[2] = system: Aβ40 in conditioned medium of cells stably expressing Amyloid Precursor Protein (APP); assay: In vitro BACE cell-based assay (Aβ40 in conditioned medium, sandwich ELISA); conditions: Homo sapiens, read-out: HEK cell assay
In short: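 Secreted Aβ40 is captured with pAb40 and detected with biotinylated 6E10, read by europium time-resolved fluorescence. IC50 comes from percent inhibition versus concentration.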

[3] = system: Abeta 40 in cerebrospinal fluid (CSF) and brain; assay: In vivo inhibition of beta-secretase (Abeta 40 reduction in CSF and brain); conditions: rat, after 4 hrs; for inhibition in vivo at 10 mg/kg: Abeta 40, 10 mg/kg (10 mpk); for inhibition in vivo at 3 mg/kg: Abeta 40, 3 mpk
Excerpt: In Vivo Inhibition of Beta-Secretase
Several animal models, including mouse, rat, dog, and monkey, may be used to screen for inhibition of beta-secretase activity in vivo following administration of a test compound sample. Animals used in this invention can be wild type, transgenic, or gene knockout animals. […] A separate group of animals receive 2% hydroxypropyl methylcellulose, 1% Tween80 alone, containing no test compound, and serve as a vehicle-control group. At the end of the test period, animals are sacrificed and brain tissues, plasma or cerebrospinal fluid are collected. […] Homogenates are centrifuged at 355,000 g, 4° C. for 30 minutes. CSF or brain supernatants are then analyzed for the presence of A-beta peptide by specific sandwich ELISA assays based on ECL (Electrochemiluminescence) technology. For example, rat Abeta40 is measured using biotinylated-4G8 (Signet) as a capture antibody and Fab40 (an in-house antibody specific to the C-terminal of Abeta40) as a detection antibody.
Actual vehicles used: Oral: 2% HPMC, 1% Tween80, pH 2.2

[4] = CSF, read-out: CSF A-beta reduction % at 10 mg/kg
[5] = brain, read-out: Brain A-beta reduction % at 10 mg/kg
[6] = HEK293, average IC50, HEK cells
[7] = CSF, read-out: CSF A-beta reduction % at 3 mpk
[8] = brain, read-out: Brain A-beta reduction % at 3 mpk

Sequence of Beta Secretase enzyme (BACE) (P56817 46-501, species assumed): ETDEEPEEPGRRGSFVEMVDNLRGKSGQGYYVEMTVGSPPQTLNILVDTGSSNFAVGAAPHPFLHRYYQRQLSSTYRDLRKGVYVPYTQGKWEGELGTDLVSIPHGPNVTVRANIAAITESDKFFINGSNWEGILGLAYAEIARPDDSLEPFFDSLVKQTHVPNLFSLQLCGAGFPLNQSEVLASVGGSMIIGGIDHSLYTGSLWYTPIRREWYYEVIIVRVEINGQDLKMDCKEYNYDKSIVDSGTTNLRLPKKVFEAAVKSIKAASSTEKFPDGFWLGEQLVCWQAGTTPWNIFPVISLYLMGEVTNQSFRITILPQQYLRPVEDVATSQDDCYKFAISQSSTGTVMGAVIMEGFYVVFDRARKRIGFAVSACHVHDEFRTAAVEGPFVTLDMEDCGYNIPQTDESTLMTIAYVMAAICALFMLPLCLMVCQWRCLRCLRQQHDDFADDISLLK

Structure (SMILES)	IC50 [1]	IC50 ([2]; HEK293, average IC50)	IC50 [2, 6]	inhibition in vivo at 10 mg/kg [3, 4]	inhibition in vivo at 10 mg/kg [3, 5]	inhibition in vivo at 3 mg/kg [3, 7]	inhibition in vivo at 3 mg/kg [3, 8]
Cc1cnc(-c2cc(F)c3c(c2)[C@]2(COC(N)=N2)c2cc(-c4cccnc4F)ccc2O3)nc1 [Example 226, (S)-4′-fluoro-7′-(2-fluoropyridin-3-yl)-2′-(5-methylpyrimidin-2-yl)-5H-spiro[oxazole-4,9′-xanthen]-2-amine]	3.9 nM	27.2 nM	–	31%	19%	–	–
Cc1ccnc(F)c1-c1ccc2c(c1)[C@@]1(COC(N)=N1)c1cc(C3=CCOCC3)ncc1O2 [Example 236, (S)-3-(3,6-dihydro-2H-pyran-4-yl)-7-(2-fluoro-4-methylpyridin-3-yl)-5′H-spiro[chromeno[2,3-c]pyridine-5,4′-oxazol]-2′-amine]	0.9 nM	6 nM	–	58%	34%	–	–
Cn1cc(-c2cc(F)c3c(c2)[C@]2(COC(N)=N2)c2cc(-c4ccc(F)nc4)ccc2O3)cn1 [Example 262, (S)-4′-fluoro-7′-(6-fluoropyridin-3-yl)-2′-(1-methyl-1H-pyrazol-4-yl)-5H-spiro[oxazole-4,9′-xanthen]-2-amine]	3.3 nM	12.6 nM	–	36%	11%	–	–
CC1(C)C=C(c2cc3c(cn2)Oc2ccc(-c4ccc(F)nc4)cc2[C@@]32COC(N)=N2)CCO1 [Example 369, (S)-3-(6,6-dimethyl-3,6-dihydro-2H-pyran-4-yl)-7-(6-fluoropyridin-3-yl)-5′H-spiro[chromeno[2,3-c]pyridine-5,4′-oxazol]-2′-amine]	2.8 nM	16.2 nM	–	46%	31%	–	–
NC1=N[C@@]2(CO1)c1cc(-c3cccnc3)ccc1Oc1cnc(N3CCC(F)(F)CC3)cc12 [Example 402, (5S)-3-(4,4-difluoro-1-piperidinyl)-7-(3-pyridinyl)spiro[chromeno[2,3-c]pyridine-5,4′-[1,3]oxazol]-2′-amine]	2.4 nM	–	13.1 nM	52%	28%	–	–
NC1=N[C@@]2(CO1)c1cc(-c3cncc(F)c3)ccc1Oc1cnc(N3CCC(F)(F)CC3)cc12 [Example 414, (5S)-3-(4,4-difluoro-1-piperidinyl)-7-(5-fluoro-3-pyridinyl)spiro[chromeno[2,3-c]pyridine-5,4′-[1,3]oxazol]-2′-amine]	1.5 nM	–	13.6 nM	64%	44%	–	–
Cc1ccc(-c2cc(F)c3c(c2)[C@]2(COC(N)=N2)c2cc(OCC(C)(C)C#N)ccc2O3)cn1 [Example 443, (S)-3-(2-amino-4′-fluoro-2′-(6-methylpyridin-3-yl)-5H-spiro[oxazole-4,9′-xanthene]-7′-yloxy)-2,2-dimethylpropanenitrile]	5 nM	–	11.6 nM	35%	7%	–	–
NC1=N[C@@]2(CO1)c1cc(-c3cnccn3)ccc1Oc1c(F)cc(C3=CCOCC3)cc12 [Example 452, (S)-2′-(3,6-dihydro-2H-pyran-4-yl)-4′-fluoro-7′-(pyrazin-2-yl)-5H-spiro[oxazole-4,9′-xanthen]-2-amine]	2 nM	–	11.5 nM	56%	35%	–	–
CC1(C#Cc2cnc3c(c2)[C@]2(COC(N)=N2)c2cc(-c4cccc(Cl)c4F)ccc2O3)COC1 [Example 463, (S)-7-(3-chloro-2-fluorophenyl)-3-((3-methyloxetan-3-yl)ethynyl)-5′H-spiro[chromeno[2,3-b]pyridine-5,4′-oxazol]-2′-amine]	0.8 nM	–	14.3 nM	30%	9%	–	–
CC1(C)C=C(c2ccc3c(c2)[C@]2(COC(N)=N2)c2cc(-c4cncnc4)c(F)cc2O3)CCO1 [Example 508, (R)-7′-(6,6-dimethyl-3,6-dihydro-2H-pyran-4-yl)-3′-fluoro-2′-(pyrimidin-5-yl)-5H-spiro[oxazole-4,9′-xanthen]-2-amine]	3.7 nM	–	14.4 nM	49%	25%	–	–
CC(C)(F)COc1cc(F)c2c(c1)[C@]1(COC(N)=N1)c1cc(-c3cncnc3)c(F)cc1O2 [Example 668, (4S)-3′,5′-difluoro-7′-(2-fluoro-2-methylpropoxy)-2′-(5-pyrimidinyl)spiro[1,3-oxazole-4,9′-xanthen]-2-amine]	0.8 nM	–	11 nM	–	–	55%	46%
CC(F)(F)COc1cc(F)c2c(c1)[C@]1(CSC(N)=N1)c1cc(-c3cccnc3F)ccc1O2 [Example 724, (4S)-2′-(2,2-difluoropropoxy)-4′-fluoro-7′-(2-fluoro-3-pyridinyl)spiro[1,3-thiazole-4,9′-xanthen]-2-amine]	1 nM	22 nM	–	42%	27%	–	–
COc1nc(-c2ccnc(F)c2)cc2c1Oc1ccc(-c3cccnc3)cc1[C@@]21COC(N)=N1 [Example 839, (S)-3-(2-fluoropyridin-4-yl)-1-methoxy-7-(pyridin-3-yl)-5′H-spiro[chromeno[2,3-c]pyridine-5,4′-oxazol]-2′-amine]	2.1 nM	11 nM	–	37%	23%	–	–
CC(C)(C#N)COc1cc(F)c2c(c1)[C@]1(COC(N)=N1)c1cc(-c3cccnc3)c(F)cc1O2 [Example 860, (S)-3-(2-amino-3′,5′-difluoro-2′-(pyridin-3-yl)-5H-spiro[oxazole-4,9′-xanthene]-7′-yloxy)-2,2-dimethylpropanenitrile]	0.7 nM	–	10 nM	0%	2%	–	–

Further lines, with some results ahead:

IC50 [1]	IC50 ([2]; HEK293, average IC50)	IC50 [2, 6]	Structure (SMILES)	inhibition in vivo at 10 mg/kg [3, 4]	inhibition in vivo at 10 mg/kg [3, 5]	inhibition in vivo at 3 mg/kg [3, 7]	inhibition in vivo at 3 mg/kg [3, 8]
0.3 nM	1.6 nM	–	NC1=N[C@@]2(CO1)c1cc(-c3cccnc3F)ccc1Oc1c(F)cc(N3CC4CCC(C3)O4)cc12 [Example 225, (4S)-2′-(8-oxa-3-azabicyclo[3.2.1]octan-3-yl)-4′-fluoro-7′-(2-fluoropyridin-3-yl)-5H-spiro[oxazole-4,9′-xanthen]-2-amine]	64%	47%	–	–
0.7 nM	–	10 nM	NC1=N[C@@]2(CS1)c1cc(-c3cccnc3F)ccc1Oc1ncc(C3=CCCOC3)cc12 [Example 672, (5S)-3-(5,6-dihydro-2H-pyran-3-yl)-7-(2-fluoro-3-pyridinyl)spiro[chromeno[2,3-b]pyridine-5,4′-[1,3]thiazol]-2′-amine]	64%	47%	–	–
0.6 nM	–	6 nM	NC1=N[C@@]2(CO1)c1cc(-c3c(F)ccnc3F)ccc1Oc1cnc(C3=CCCOC3)cc12 [Example 676, (5S)-7-(2,4-difluoro-3-pyridinyl)-3-(5,6-dihydro-2H-pyran-3-yl)spiro[chromeno[2,3-c]pyridine-5,4′-[1,3]oxazol]-2′-amine]	–	–	76%	74%
0.4 nM	4 nM	–	NC1=N[C@@]2(CO1)c1cc(-c3cccnc3)ccc1Oc1c2cc(C2=CCCOC2)nc1F [Example 745, (5S)-3-(5,6-dihydro-2-H-pyran-3-yl)-1-fluoro-7-(3-pyridinyl)spiro[chromeno[2,3-c]pyridine-5-4′-[1,3]oxazol]-2′-amine]	78%	69%	–	–
0.4 nM	3 nM	–	CC#Cc1cncc(-c2ccc3c(c2)[C@@]2(COC(N)=N2)c2cc(-c4cccnc4)nc(F)c2O3)c1 [Example 759, (S)-1-fluoro-7-(5-(prop-1-ynyl)pyridin-3-yl)-3-(pyridin-3-yl)-5′H-spiro[chromeno[2,3-c]pyridine-5,4′-oxazol]-2′-amine]	–	–	43%	43%
0.2 nM	12 nM	–	NC1=N[C@@]2(CS1)c1cc(-c3cccnc3F)ccc1Oc1c(F)cc(C3=CCCOC3)cc12 [Example 802, (S)-2′-(5,6-dihydro-2H-pyran-3-yl)-4′-fluoro-7′-(2-fluoropyridin-3-yl)-5H-spiro[thiazole-4,9′-xanthen]-2-amine]	69%	57%	–	–
0.3 nM	–	7 nM	NC1=N[C@@]2(CO1)c1cc(-c3cncc(F)c3)ccc1Oc1c2cc(N2CCOCC2)nc1F [Example 893, (5S)-1-fluoro-7-(5-fluoro-3-pyridinyl)-3-(4-morpholinyl)spiro[chromeno[2,3-c]pyridine-5,4′-[1,3]oxazol]-2′-amine]	76%	70%	–	–
